Key:
mouse (CD-1) plasma = experiment: Presaturation equilibrium dialysis, fraction unbound in CD-1 mouse plasma; format: in vitro ADME; settings: 5 μM PFAS, 18 h, 37 °C, value (CV)
Method: (§1) Each PFAS:matrix combination was assessed in quadruplicate.
(§2) The injection volume for each sample was 5 µL.

rat serum albumin (RSA) = rat serum albumin (RSA) (Rattus norvegicus, UniProt P02770); experiment: Presaturation equilibrium dialysis, fraction unbound in rat serum albumin solution; settings: for fraction unbound at 18 h, 5 µM: rat
Method: (§3) The equilibrium dialysis device (EQD) HTD96 (Gales Ferry, CT, USA) was assembled according to manufacturer instructions. DPBS buffer solutions were prepared by adding PFAS with a concentration of either approximately five-fold of the estimated fu values based on initial available data or assumed to be 0.001 if no data was available. The dialysis apparatus and membranes assembled were pre-saturated (250 µL) three times in total with PFAS spiked DPBS buffer solution; twice for 1 h followed by a final 18-h pre-saturation. This same solution was used on the receiver side of the EQD. […] This 4% albumin was used in the albumin binding study to recapitulate plasma concentration, as human albumin concentration in plasma is 3.5–4.5 g/dL (530–680 µM). The matrix was diluted five-fold using DPBS for PFAS that had preliminary fu values lower than 0.01. Dimethylsulfoxide (DMSO) stock solutions of test PFAS were prepared at 500 μM and added to species-specific plasma or 4% albumin to a final concentration of 5 μM with 1% DMSO. Next, 150 μL of PFAS spiked DPBS was added to the receiver side of the membrane and 150 μL of compound spiked matrix was added to the donor side. […] Each PFAS:matrix combination was assessed in quadruplicate. For sample collection, 15 μL of buffer and 45 μL of matrix were sampled from the dialysis device into a 96-deep well plate and matrix-matched with either blank buffer or matrix. The samples were then quenched with 200 μL of cold acetonitrile containing internal standard (tolbutamide 30 nM and carbamazepine 12 nM) to precipitate proteins. Next, the plates were sealed and placed on a vortex mixer for 1 min, and then centrifuged (Beckman Coulter, Fullerton, CA, USA) at 3000 rpm for 5 min at room temperature. Lastly, the supernatant was transferred to a new 96-well plate, fully dried down under nitrogen gas, reconstituted with 200 µL of 50/50 (v/v) HPLC grade water/acetonitrile, and vortexed for 1 min prior to LC-MS/MS analysis.
(§4) LC-MS/MS analyses were performed on a SCIEX Triple Quad 5500 mass spectrometer (SCIEX, Concord, ON, Canada) equipped with Turbo Ion Spray interface. […] All instruments were controlled and synchronized by SCIEX Analyst software (version 1.6.3). Mobile phases compositions were 0.1% formic acid in water (mobile phase A) and 0.1% formic acid in acetonitrile (mobile phase B). […] The column was equilibrated at 5% B for 0.5 min before injecting samples. The total run time for each injection was 6 min. The chromatographic separation was conducted on a Phenomenex Kinetex C18 100Å 30 × 2.1 mm column (Torrance, CA, USA) with a flow rate of 0.5 mL/min. The injection volume for each sample was 5 µL. Multiple-reaction-monitoring (MRM) mode using specific precursor/product ion transitions was used for quantification. Data processing was performed using SCIEX Analyst software (version 1.6.3).
(§5) The calculations for fu are shown in Equations (1) and (2), where D is the dilution factor and fu,d is the diluted fu shown below. All calculations are based on area ratios (analyte peak area/IS peak area), and MS responses used for calculations were all in linear ranges. […] (1) Diluted fud=Receiver Area Ratio/Donor Area Ratio (2) Undiluted fu=1/D/1/fu,d−1+1/D
(§6) Albumin concentrations for rodents have been reported in the literature as rat: 3.0 g/dL; CD-1 mice: 2.7 g/dL; C57BL/6 mice: 2.9 g/dL [53].

[1] = biological target: mouse serum albumin (MSA) (Mus musculus, UniProt P07724); experiment: Presaturation equilibrium dialysis, fraction unbound in mouse serum albumin solution; settings: for fraction unbound at 18 h, 5 µM: mouse
Method: as §3, §4, §5, §6

human plasma = experiment: Presaturation equilibrium dialysis, fraction unbound in human plasma; format: in vitro ADME; settings: 5 μM PFAS, 18 h, 37 °C, value (CV)
Method: as §1, §2

[2] = biological target: T1, human serum albumin (HSA) (Homo sapiens, UniProt P02768); experiment: Presaturation equilibrium dialysis, fraction unbound in human serum albumin solution; format: in vitro ADME; settings: 4% human serum albumin in PBS, 5 μM PFAS, value (CV); for fraction unbound at 18 h, 5 µM: 4% human serum albumin (HSA) solution, read-out: Fraction Unbound (fu) and Coefficient of Variance (CV), HSA
T1 construct: purchased Sigma-Aldrich
Method: as §1, §2

mouse (C57BL/6) plasma = experiment: Presaturation equilibrium dialysis, fraction unbound in C57BL/6 mouse plasma; format: in vitro ADME; settings: 5 μM PFAS, 18 h, 37 °C, value (CV)
Method: as §1, §2

rat (Wistar-Han) plasma = experiment: Presaturation equilibrium dialysis, fraction unbound in rat plasma; format: in vitro ADME; settings: 5 μM PFAS, 18 h, 37 °C, value (CV)
Method: as §1, §2

[3] = humans; cited from earlier work
[4] = Presaturation equilibrium dialysis, fraction unbound in CD-1 mouse plasma; format: in vitro ADME; settings: 5 μM PFAS, 37 °C, value (CV), read-out: Fraction Unbound (fu) and Coefficient of Variance (CV), CD-1 Plasma
Method: as §1, §2

[5] = Presaturation equilibrium dialysis, fraction unbound in human plasma; format: in vitro ADME; settings: human, 5 μM PFAS, 37 °C, value (CV), read-out: Fraction Unbound (fu) and Coefficient of Variance (CV), Human Plasma
Method: as §1, §2

[6] = Presaturation equilibrium dialysis, fraction unbound in C57BL/6 mouse plasma; format: in vitro ADME; settings: 5 μM PFAS, 37 °C, value (CV), read-out: Fraction Unbound (fu) and Coefficient of Variance (CV), C57BL/6 Plasma
Method: as §1, §2

[7] = Presaturation equilibrium dialysis, fraction unbound in rat plasma; format: in vitro ADME; settings: Wistar-Han rat plasma, 5 μM PFAS, 37 °C, value (CV), read-out: Fraction Unbound (fu) and Coefficient of Variance (CV), Rat Plasma
Method: as §1, §2

[8] = 3% rat serum albumin, value (%CV)
[9] = 4% rat serum albumin in PBS, 5 μM PFAS, value (CV)
[10] = 3% mouse serum albumin, value (%CV)
[11] = 4% mouse serum albumin in PBS, 5 μM PFAS, value (CV)
[12] = 4% rat serum albumin (RSA) solution, Fraction Unbound (fu) and Coefficient of Variance (CV), RSA, 4% rat serum albumin in PBS, 5 μM PFAS, value (CV)
[13] = isolated protein, Fraction unbound (fu) and %CV, RSA 3%, 3% rat serum albumin, value (%CV)
[14] = 4% mouse serum albumin (MSA) solution, Fraction Unbound (fu) and Coefficient of Variance (CV), MSA, 4% mouse serum albumin in PBS, 5 μM PFAS, value (CV)
[15] = isolated protein, Fraction unbound (fu) and %CV, MSA 3%, 3% mouse serum albumin, value (%CV)

T1 sequence (P02768 25-609): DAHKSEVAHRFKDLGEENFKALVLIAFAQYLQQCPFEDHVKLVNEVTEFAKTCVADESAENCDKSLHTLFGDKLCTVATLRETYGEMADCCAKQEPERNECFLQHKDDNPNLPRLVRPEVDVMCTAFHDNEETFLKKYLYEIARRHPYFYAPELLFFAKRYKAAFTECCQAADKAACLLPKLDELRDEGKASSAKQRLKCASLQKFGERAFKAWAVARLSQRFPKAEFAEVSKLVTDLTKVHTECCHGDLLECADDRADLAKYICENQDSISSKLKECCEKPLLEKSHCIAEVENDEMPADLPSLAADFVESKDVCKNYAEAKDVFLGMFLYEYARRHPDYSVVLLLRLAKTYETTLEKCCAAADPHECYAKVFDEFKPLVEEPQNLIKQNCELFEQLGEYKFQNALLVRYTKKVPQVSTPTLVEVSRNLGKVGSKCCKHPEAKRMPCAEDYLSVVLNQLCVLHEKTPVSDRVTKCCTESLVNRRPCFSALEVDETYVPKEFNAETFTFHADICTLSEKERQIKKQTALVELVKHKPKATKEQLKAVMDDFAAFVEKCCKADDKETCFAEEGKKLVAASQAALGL
mouse serum albumin (MSA), sequence (P07724 25-608): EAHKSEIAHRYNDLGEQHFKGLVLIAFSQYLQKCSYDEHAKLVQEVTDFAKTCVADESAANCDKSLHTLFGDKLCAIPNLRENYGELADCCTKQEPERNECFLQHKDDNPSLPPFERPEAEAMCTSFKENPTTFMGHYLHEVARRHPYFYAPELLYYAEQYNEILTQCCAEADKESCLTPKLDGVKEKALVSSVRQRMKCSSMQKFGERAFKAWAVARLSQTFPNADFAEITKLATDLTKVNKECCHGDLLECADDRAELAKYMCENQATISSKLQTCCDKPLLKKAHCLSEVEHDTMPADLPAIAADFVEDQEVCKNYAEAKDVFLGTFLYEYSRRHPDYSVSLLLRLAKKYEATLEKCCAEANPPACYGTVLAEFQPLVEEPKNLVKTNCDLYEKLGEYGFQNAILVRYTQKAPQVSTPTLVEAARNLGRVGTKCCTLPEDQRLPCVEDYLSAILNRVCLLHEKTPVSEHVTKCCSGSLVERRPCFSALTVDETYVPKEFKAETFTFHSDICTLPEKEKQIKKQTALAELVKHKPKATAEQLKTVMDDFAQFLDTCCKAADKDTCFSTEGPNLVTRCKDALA
rat serum albumin (RSA), sequence (P02770 25-608): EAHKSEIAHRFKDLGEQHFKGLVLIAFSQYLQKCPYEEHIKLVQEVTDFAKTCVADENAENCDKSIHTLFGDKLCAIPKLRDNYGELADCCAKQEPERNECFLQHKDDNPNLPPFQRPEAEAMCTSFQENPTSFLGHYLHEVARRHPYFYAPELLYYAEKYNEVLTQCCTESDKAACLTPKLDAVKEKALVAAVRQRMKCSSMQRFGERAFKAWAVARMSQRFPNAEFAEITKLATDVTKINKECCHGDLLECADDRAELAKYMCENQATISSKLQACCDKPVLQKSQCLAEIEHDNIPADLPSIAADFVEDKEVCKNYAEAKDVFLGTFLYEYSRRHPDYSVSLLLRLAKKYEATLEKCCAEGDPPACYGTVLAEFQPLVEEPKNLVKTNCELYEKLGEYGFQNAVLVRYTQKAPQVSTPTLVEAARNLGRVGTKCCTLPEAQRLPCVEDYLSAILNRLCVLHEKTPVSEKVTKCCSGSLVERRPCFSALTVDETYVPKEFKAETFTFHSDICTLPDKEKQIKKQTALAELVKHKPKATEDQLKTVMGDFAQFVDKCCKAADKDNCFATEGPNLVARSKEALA

SMILES	Fraction Unbound (fu) and Coefficient of Variance (CV), CD-1 Plasma (mouse (CD-1) plasma)	Fraction unbound (fu) and %CV, RSA 3% (rat serum albumin (RSA); [8])	Fraction Unbound (fu) and Coefficient of Variance (CV), RSA (rat serum albumin (RSA); [9])	Fraction unbound (fu) and %CV, MSA 3% [1, 10]	Fraction Unbound (fu) and Coefficient of Variance (CV), MSA [1, 11]	Fraction Unbound (fu) and Coefficient of Variance (CV), Human Plasma (human plasma)	Fraction Unbound (fu) and Coefficient of Variance (CV), HSA [2]	Fraction Unbound (fu) and Coefficient of Variance (CV), C57BL/6 Plasma (mouse (C57BL/6) plasma)	Fraction Unbound (fu) and Coefficient of Variance (CV), Rat Plasma (rat (Wistar-Han) plasma)	half-lives [3] [days]	t1/2 [3]	fraction unbound at 18 h, 5 µM [4]	fraction unbound at 18 h, 5 µM (rat serum albumin (RSA); [12])	fraction unbound at 18 h, 5 µM (rat serum albumin (RSA); [13])	fraction unbound at 18 h, 5 µM [1, 14]	fraction unbound at 18 h, 5 µM [1, 15]	fraction unbound at 18 h, 5 µM [5]	fraction unbound at 18 h, 5 µM [2]	fraction unbound at 18 h, 5 µM [6]	fraction unbound at 18 h, 5 µM [7]
O=S(=O)(O)CCC(F)(F)C(F)(F)C(F)(F)C(F)(F)C(F)(F)C(F)(F)F [6:2 FtS, 6:2 fluorotelomer sulfonate]	0.0255(2%)	0.00892 (4%)	0.0111(4%)	0.0091 (9%)	0.0113(9%)	0.0197(2%)	0.00746(0%)	0.0253(2%)	0.0236(4%)	–	–	–	–	–	–	–	–	–	–	–
O=C(O)C(F)(F)C(F)(F)C(F)(F)F [PFBA, Perfluorobutanoic acid]	0.757(6%)	0.18 (3%)	0.216(3%)	0.206 (23%)	0.24(22%)	–	0.15(5%)	0.767(2%)	0.37(24%)	3	3.1 days	–	–	–	–	–	–	–	–	–
O=S(=O)(O)C(F)(F)C(F)(F)C(F)(F)C(F)(F)F [PFBS, perfluorobutanesulfonic acid]	0.261(7%)	0.0168 (8%)	0.0208(8%)	0.0321 (11%)	0.0396(11%)	–	0.056(5%)	0.28(5%)	0.0542(3%)	26	26 days	–	–	–	–	–	–	–	–	–
O=C(O)C(F)(F)C(F)(F)C(F)(F)C(F)(F)C(F)(F)C(F)(F)C(F)(F)C(F)(F)C(F)(F)C(F)(F)C(F)(F)F [PFDoDA, perfluorododecanoic acid]	–	–	–	–	–	–	–	–	–	–	–	0.000222	9.64e-05	7.77e-05	0.000217	0.000175	0.000105	0.000157	0.000205	7.96e-05
O=C(O)C(F)(F)C(F)(F)C(F)(F)C(F)(F)C(F)(F)F [PFHxA, perfluorohexanoic acid]	0.169(5%)	0.0212 (4%)	0.0264(4%)	0.0266 (11%)	0.0329(11%)	0.038(6%)	0.0336(7%)	0.182(7%)	0.0358(7%)	–	–	–	–	–	–	–	–	–	–	–
O=S(=O)(O)C(F)(F)C(F)(F)C(F)(F)C(F)(F)C(F)(F)C(F)(F)F [PFHxS, perfluorohexanesulfonic acid]	–	–	–	–	–	–	–	–	–	–	–	0.0128	0.000573	0.00047	0.00225	0.00181	0.000695	0.000245	0.013	0.00076
O=S(=O)(O)C(F)(F)C(F)(F)C(F)(F)C(F)(F)C(F)(F)C(F)(F)C(F)(F)C(F)(F)F [PFOS, perfluorooctanesulfonic acid]	–	0.000697 (25%)	0.000852(25%)	0.00102 (19%)	0.00126(19%)	–	0.000524(13%)	0.00256(8%)	0.00109(4%)	–	3.3–5.4 years	–	–	–	–	–	–	–	–	–
O=C(O)C(F)(F)C(F)(F)C(F)(F)C(F)(F)F [PFPA, perfluoropentanoic acid]	0.609(4%)	0.0769 (4%)	0.0942(4%)	0.0809 (11%)	0.0987(11%)	0.0888(3%)	0.0933(6%)	0.577(5%)	0.18(2%)	–	–	–	–	–	–	–	–	–	–	–
O=C(O)C(F)(F)C(F)(F)C(F)(F)C(F)(F)C(F)(F)C(F)(F)C(F)(F)C(F)(F)C(F)(F)C(F)(F)F [PFUDA, perfluoroundecanoic acid]	0.000524(15%)	0.000147 (28%)	0.000178(28%)	0.000417 (19%)	0.000513(19%)	0.000419(24%)	0.000417(23%)	–	0.000349(20%)	–	–	–	–	–	–	–	–	–	–	–

Source: article PMC11054487, “Species-Specific Unbound Fraction Differences in Highly Bound PFAS: A Comparative Study across Human, Rat, and Mouse Plasma and Albumin” (Toxics, 2024)
